According to US7364759B2, “Skin whitening compositions containing black cohosh extract” (Access Business Group International LLC, priority 2003, dated 2008):

Tested on: mouse derived immortalized melanocyte cells (M3)
Assay: Suppression of melanogenesis in vitro (modified Dooley assay)
Format: cell-based
Conditions: treatment dose 0.100%; treated days 1, 3, 5; melanin extracted day 6, OD 405 nm

O=C1O[C@H]([C@@H](O)CO)C(O)=C1O [Ascorbic Acid]
% Control Melanin: 51%
